The nature of data set [1]: Electrochemical activity: polarographic reduction on mercury dripping electrode. Type of data set: physicochemical. As to conditions: for number of electrons participating in the reduction reaction: calculated with Geirovsky-Ilkovich equation; for i: 2.0% sodium chloride background, 9·10^−4 M; for i / −E1/2: 37° C., forward trace, average for the group of compounds; for −E1/2: vs SCE; for half-wave potential more positive at reverse stroke compared to forward stroke: polarograms of reverse stroke.

The next data set has as its system thrombocytes. As to the kind of experiment: ADP-induced aggregation of thrombocytes in vitro (Born method, plasma enriched with thrombocytes). Type of data set: cell-based, rabbit. Particulars: 3-minute incubation, ADP 10^−5 M. As for the experimental part:
The aggregation of thrombocytes was studied by the Born method based on determination of the changes in the optical density of plasma enriched with thrombocytes after its incubation with an aggregation inductor.
Adenozinediphosphoric acid (ADP) was selected as an aggregation inductor, which in fact is an aggregation generator. Use was made of a sample (registration number 885) of the Sigma Diagnostics Company (USA) in final concentration of 10^−5 M.
The experiments were carried out on male rabbits of the “Chinchilla” breed having a mass of 2.7±0.3 kg. 18-24 hours prior to the experiment they were deprived of feed while preserving free access to water.
To obtain plasma enriched with thrombocytes, blood was taken from a cut of a marginal vein of the rabbit ear, the sample was stabilized with 3.8% of sodium citrate solution in a ratio of 9:1 and centrifuged at 200 g (1000 rev/min) for 10 minutes. The top supernatant layer enriched with thrombocytes was transferred by an automatic dropper into a silicone test tube and kept at 37° C. The plasma enriched with thrombocytes contained, on the average, […]. If this content exceeded the specified 3×10^8 blood platelets in 1 liter, this sample was diluted to the necessary concentration with plasma deprived of thrombocytes, which was obtained by centrifuging blood at 650 g during 10 minutes.
The measurements of the optical density of the samples were made on two-channel aggregometer of the “Chronolog” Company (USA). A flask containing 490 mkl of plasma rich with thrombocytes was placed in a device, into which a magnetic agitator covered with Teflon was lowered. The index of maximum amplitude of aggregation (MA) in percent of a fall of the plasma optical density under effect of the aggregation inductor was recorded. The control index MA of plasma was compared with the MA of plasma incubated for 3 minutes with different concentrations of the compounds: from 10^−3 to 10^−7 in vitro experiments or with plasma obtained 15, 30, 60 and 120 minutes after intravenous administration of different doses of the compounds in vivo experiments.
The process of aggregation of thrombocytes was recorded with the help of a computer; on the monitor screen the there were depicted curves reflecting changes of the optical density of the plasma enriched which was taken as a standard 100% compared to the optical density of the non-thrombocyte plasma taken for 0% content of thrombocytes.
Under in vitro conditions a flask was filled with blood plasma enriched with thrombocytes, to which an aggregation inductor ADP was added at a concentration of 10^−5 M, incubated for 3 minutes, and then the compounds according to the invention were introduced directly into the flask. Their action by aggregation of thrombocytes was studied after 3-minute incubation in a wide range of concentrations from 10^−3 to 10^−7 M to minimum concentration of 10^−7M not inducing no effect of suppressing the aggregation.

The subject of a further data set is plasma hemostasis. Kind of data set: Prothrombin time after intravenous administration. Type of data set: in vivo, rabbit. As to conditions: for effect on the prothrombin time index: doses of 15.0, 30.0, 60.0 mg/kg. As for the experimental part:
The static parameters of the blood and plasma coagulation (partial activated thromboplastin time, thrombin time, maximum coagulation activity (test for auto coagulation) were determined using the Behnk Electronic coagulometer (Germany). The operating principle of this instrument is based on the fact that the formed blood clot breaks the contacts of the pulse counter in the flask-pin circuit, said pin permanently oscillating in a vertical plane. The moment of formation of the clot is registered by stopping the stop watch hand.
The measurements were effected at a constant temperature of 37° C. maintained by a temperature control unit.
The method of its determination is based on estimation of the coagulation of citrate or oxalic blood plasma, when it is mixed with thromboplastin and a calcium chloride solution. Since under these conditions the time of formation of the clot depends on the content of II, VII, IX and X factors in the investigated plasma sample, now the test is called “thromboplastin time by Quick” or “activity thromboplastin complex”.
Citrate blood containing 1 part of citrate per 9 parts of native blood was centrifuged at 3000 rev/min for 10 minutes to obtain plasma deprived of thrombocytes.
Added into a test tube in a water bath were 0.1 ml of plasma and 0.1 ml of a thromboplastin solution.

Where [2] appears, read: 15.0 mg/kg intravenously, after 15 minutes, control 11.8 ± 0.1.
Where [3] appears, read: 15.0 mg/kg intravenously, after 30 minutes, control 11.8 ± 0.1.
Where [4] appears, read: 15.0 mg/kg intravenously, after 60 minutes, control 11.8 ± 0.1.
[5] abbreviates: 15.0 mg/kg intravenously, after 120 minutes, control 11.8 ± 0.1.
Setting [6] is: 30.0 mg/kg intravenously, after 15 minutes, control 11.2 ± 0.1.
Setting [7] is: 30.0 mg/kg intravenously, after 30 minutes, control 11.2 ± 0.1.
Where [8] appears, read: 30.0 mg/kg intravenously, after 60 minutes, control 11.2 ± 0.1.
The mark [9] stands for this setting: 30.0 mg/kg intravenously, after 120 minutes, control 11.2 ± 0.1.
Where [10] appears, read: 60.0 mg/kg intravenously, after 15 minutes, control 12.0 ± 0.1.
The mark [11] stands for this setting: 60.0 mg/kg intravenously, after 30 minutes, control 12.0 ± 0.1.
The mark [12] stands for this setting: 60.0 mg/kg intravenously, after 60 minutes, control 12.0 ± 0.1.
[13] abbreviates: 60.0 mg/kg intravenously, after 120 minutes, control 12.0 ± 0.1.

This is an account of results in patent US8592421B2, “Cyclic bioisosters of purine system derivatives and a pharmaceutical composition based thereon” (priority 2003, dated 2013).

Turning to `O=c1[nH]n([C@@H]2O[C@H](CO)[C@@H](O)[C@H]2O)c(=O)c2nc(O)cnc12.[Na].[Na]` [Compound 23, disodium salt of 2-hydroxy-7-(β-D-ribofuranosile)pyrazine[2,3—Cl]-6H-pyridazine-5,8-dione], the “number of electrons participating in the reduction reaction” value (shortened to “number … in the reduction reaction”) in data set [1] is recorded as 3.72. For the same compound, the i is 0.32 ± 0.03 mkA in data set [1] (pH 7.0), 0.33 ± 0.04 mkA in data set [1] (pH 7.2), 0.34 ± 0.03 mkA in data set [1] (pH 7.4) and 0.34 ± 0.02 mkA in data set [1] (pH 7.6). Besides, the “−E1/2” value in data set [1] (pH 7.0) is listed as 0.16 ± 0.02 V; in data set [1] (pH 7.2) it was 0.19 ± 0.02 V; in data set [1] (pH 7.4) it was 0.175 ± 0.01 V; in data set [1] (pH 7.6), 0.16 ± 0.015 V. The “half-wave potential more positive at reverse stroke compared to forward stroke” value in data set [1] was determined as 20.0 mV.
With `O=c1[nH][nH]c(=O)c2c(Br)ncnc12.[K]` [Compound 37, potassium salt of 4-bromine-pyrimido[4,5-D]-6H-pyridazine-5,8-dione], the “MA - fall of optical density of plasma, % to the standard” value (from here on “MA - fall … % to the standard”) with thrombocytes (10^−3 M, control 60.8 ± 3.4) amounted to 46.9 ± 2.7 %; in the data set with thrombocytes (10^−4 M, control 60.0 ± 2.1), 47.1 ± 2.0 %; in the data set with thrombocytes (10^−5 M, control 52.5 ± 2.1) it was 40.6 ± 1.7 %. Moreover, the “MA - drop of optical density, %” value in the data set with thrombocytes (10^−6 M, control 52.8 ± 1.8) came out at 48.1 ± 2.9%; in the data set on thrombocytes (10^−7 M, control 51.5 ± 2.1), 50.1 ± 1.0%. The “prothrombin time, T” value with plasma hemostasis (setting [2]) came to 11.6 ± 0.2 s; in the data set on plasma hemostasis (setting [3]), 11.6 ± 0.1 s; in the data set on plasma hemostasis (setting [4]), 11.5 ± 0.2 s; with plasma hemostasis (setting [5]), 11.8 ± 0.1 s; in the data set on plasma hemostasis (setting [6]), 11.3 ± 0.1 s; in the data set with plasma hemostasis (setting [7]) it was 11.2 ± 0.2 s. Moreover, the “prothrombin time, T” value turned out to be 11.4 ± 0.1 s with plasma hemostasis (setting [8]); 11.1 ± 0.1 s in the data set on plasma hemostasis (setting [9]); 12.1 ± 0.1 s in the data set on plasma hemostasis (setting [10]); 12.0 ± 0.1 s in the data set with plasma hemostasis (setting [11]); 12.1 ± 0.2 s with plasma hemostasis (setting [12]); 12.0 ± 0.1 s in the data set with plasma hemostasis (setting [13]). For the same compound, in the data set with plasma hemostasis, the “effect on the prothrombin time index” value was “have no effect on the prothrombin time index”.
As for `Nc1ncc2c(=O)[nH][nH]c(=O)c2n1` [Compound 36, 2-amino-pyrimido[4,5-d]-6H-pyridazine-5,8-dione], the “MA - fall … % to the standard” value was determined as 45.8 ± 2.3 % in the data set on thrombocytes (10^−3 M, control 60.8 ± 3.4); 46.9 ± 2.4 % in the data set with thrombocytes (10^−4 M, control 60.0 ± 2.1); 40.1 ± 2.0 % in the data set with thrombocytes (10^−5 M, control 52.5 ± 2.1). Further, the “MA - drop of optical density, %” value in the data set with thrombocytes (10^−6 M, control 52.8 ± 1.8) is recorded as 49.3 ± 2.6%; in the data set on thrombocytes (10^−7 M, control 51.5 ± 2.1), 49.7 ± 1.8%. In data set [1], the “number … in the reduction reaction” value is recorded as 3.5. Further, the i is recorded as 0.30 ± 0.05 mkA in data set [1] (pH 7.0), 0.26 ± 0.02 mkA in data set [1] (pH 7.2), 0.30 ± 0.03 mkA in data set [1] (pH 7.4) and 0.30 ± 0.02 mkA in data set [1] (pH 7.6). Besides, the “−E1/2” value in data set [1] (pH 7.0) is recorded as 0.08 ± 0.02 V; in data set [1] (pH 7.2) it was 0.085 ± 0.015 V; in data set [1] (pH 7.4), 0.085 ± 0.02 V; in data set [1] (pH 7.6), 0.09 ± 0.02 V.
On to `Nc1ccnc2c(=O)n([C@@H]3O[C@H](CO)[C@@H](O)[C@H]3O)[nH]c(=O)c12` [Compound 2, 4-amino-7-(β-D-ribofuranosile)pyrido[2,3-d]-6H-pyridazine-5,8-dione], for which the “MA - fall … % to the standard” value in the data set on thrombocytes (10^−3 M, control 60.8 ± 3.4) is 51.4 ± 2.7 %; with thrombocytes (10^−4 M, control 60.0 ± 2.1), 50.4 ± 1.7 %; in the data set with thrombocytes (10^−5 M, control 52.5 ± 2.1), 48.2 ± 1.0 %. For the same compound, the “MA - drop of optical density, %” value in the data set on thrombocytes (10^−6 M, control 52.8 ± 1.8) is given as 50.1 ± 2.0%; in the data set on thrombocytes (10^−7 M, control 51.5 ± 2.1), 50.8 ± 2.2%. Besides, the “prothrombin time, T” value in the data set with plasma hemostasis (setting [2]) is recorded as 11.7 ± 0.2 s; in the data set on plasma hemostasis (setting [3]), 11.5 ± 0.2 s; with plasma hemostasis (setting [4]), 11.4 ± 0.2 s; in the data set on plasma hemostasis (setting [5]) it was 11.7 ± 0.1 s; in the data set on plasma hemostasis (setting [6]), 11.1 ± 0.2 s; in the data set with plasma hemostasis (setting [7]) it was 11.0 ± 0.1 s. In addition, the “prothrombin time, T” value in the data set with plasma hemostasis (setting [8]) is 11.3 ± 0.1 s; in the data set on plasma hemostasis (setting [9]) it was 11.2 ± 0.2 s; with plasma hemostasis (setting [10]), 12.0 ± 0.1 s; with plasma hemostasis (setting [11]), 11.9 ± 0.2 s; in the data set with plasma hemostasis (setting [12]) it was 12.1 ± 0.2 s; with plasma hemostasis (setting [13]) it was 11.9 ± 0.1 s. In the data set with plasma hemostasis, the “effect on the prothrombin time index” value is reported as “have no effect on the prothrombin time index”.
Consider `O=c1[nH][nH]c(=O)c2ncccc12.[Li]` [Compound 6, lithium salt of pyrido[2,3-d]-6H-pyridazine-5,8-dione], for which the “MA - fall … % to the standard” value is recorded as 50.0 ± 1.9 % in the data set with thrombocytes (10^−3 M, control 60.8 ± 3.4); 53.3 ± 2.2 % in the data set on thrombocytes (10^−4 M, control 60.0 ± 2.1); 47.4 ± 2.0 % in the data set with thrombocytes (10^−5 M, control 52.5 ± 2.1). The “MA - drop of optical density, %” value in the data set on thrombocytes (10^−6 M, control 52.8 ± 1.8) came to 51.2 ± 3.2%; in the data set on thrombocytes (10^−7 M, control 51.5 ± 2.1) it was 50.7 ± 3.2%.
Turning to `O=c1[nH][nH]c(=O)c2nccnc12.[Li]` [Compound 25, lithium salt of pyrazine[2,3-d]-6H-pyridazine-5,8-dione], the “MA - fall … % to the standard” value stood at 48.2 ± 2.9 % with thrombocytes (10^−3 M, control 60.8 ± 3.4); 48.6 ± 2.0 % in the data set on thrombocytes (10^−4 M, control 60.0 ± 2.1); 43.4 ± 3.2 % with thrombocytes (10^−5 M, control 52.5 ± 2.1). For the same compound, the “MA - drop of optical density, %” value with thrombocytes (10^−6 M, control 52.8 ± 1.8) is 50.3 ± 2.1%; with thrombocytes (10^−7 M, control 51.5 ± 2.1), 50.1 ± 3.0%. In addition, in data set [1], the “number … in the reduction reaction” value is 3.72. Besides, the i in data set [1] (pH 7.0) is 0.32 ± 0.03 mkA; in data set [1] (pH 7.2) it was 0.33 ± 0.04 mkA; in data set [1] (pH 7.4), 0.34 ± 0.03 mkA; in data set [1] (pH 7.6), 0.34 ± 0.02 mkA. For the same compound, the “−E1/2” value in data set [1] (pH 7.0) stood at 0.16 ± 0.02 V; in data set [1] (pH 7.2), 0.19 ± 0.02 V; in data set [1] (pH 7.4), 0.175 ± 0.01 V; in data set [1] (pH 7.6) it was 0.16 ± 0.015 V. Also, in data set [1], the “half-wave potential more positive at reverse stroke compared to forward stroke” value was 20.0 mV.
